The supplement of paper PMC10307832

What was measured:
Experiment in all cases: relative viability (nuclei count vs DMSO), 5 days (fraction); higher = more cells survive
[1] = compound: CS(=O)(=O)c1ccc(-c2cnc(N)c(C(=O)Nc3ccccc3)n2)cc1 [VE-821] + C[C@@H](Oc1cc(-c2cnn(C3CCNCC3)c2)cnc1N)c1c(Cl)ccc(F)c1Cl [Crizotinib] (partner 1 µM)
Outline: (§1)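 Relative viability is defined as nuclei in treated wells over nuclei in vehicle wells. Duplicate plates were run and medians reported. Lung cancer cell lines in 1536-well plates were dosed by pin tool one day after seeding, with one drug or with a fixed anchor-drug dose plus five library-drug doses (not always all listed) in √10 steps, and nuclei were counted after 5 days.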

[2] = compound: CS(=O)(=O)c1ccc(-c2cnc(N)c(C(=O)Nc3ccccc3)n2)cc1 [VE-821] + NC(=O)Nc1cc(-c2cccc(F)c2)sc1C(=O)N[C@H]1CCCNC1 [AZD7762] (partner 0.2 µM)
Outline: as §1

[3] = compound: CS(=O)(=O)c1ccc(C(=O)Nc2ccc(Cl)c(-c3ccccn3)c2)c(Cl)c1 [Vismodegib] + CS(=O)(=O)CCNCc1ccc(-c2ccc3ncnc(Nc4ccc(OCc5cccc(F)c5)c(Cl)c4)c3c2)o1 [Lapatinib] (partner 2 µM)
Outline: as §1

[4] = compound: CS(=O)(=O)c1ccc(-c2cnc(N)c(C(=O)Nc3ccccc3)n2)cc1 [VE-821] + CCNC(=O)c1noc(-c2cc(C(C)C)c(O)cc2O)c1-c1ccc(CN2CCOCC2)cc1 [Luminespib] (partner 0.01 µM)
Outline: as §1

Cell Line | relative viability ([1]; first compound 0.08 µM) | relative viability ([1]; first compound 0.253 µM) | relative viability ([1]; first compound 0.8 µM) | relative viability ([1]; first compound 2.53 µM) | relative viability ([1]; first compound 8 µM) | relative viability ([2]; first compound 0.08 µM) | relative viability ([2]; first compound 0.253 µM) | relative viability ([2]; first compound 0.8 µM) | relative viability ([2]; first compound 2.53 µM) | relative viability ([2]; first compound 8 µM) | relative viability ([3]; first compound 0.08 µM) | relative viability ([3]; first compound 0.253 µM) | relative viability ([3]; first compound 0.8 µM) | relative viability ([3]; first compound 2.53 µM) | relative viability ([3]; first compound 8 µM) | relative viability ([4]; first compound 0.08 µM) | relative viability ([4]; first compound 0.253 µM) | relative viability ([4]; first compound 0.8 µM) | relative viability ([4]; first compound 2.53 µM) | relative viability ([4]; first compound 8 µM)
NCI-H23 | 0.788 | 0.495 | 0.501 | 0.508 | 0.272 | 0.18 | 0.148 | 0.153 | 0.14 | 0.126 | 1.1 | 1.08 | 1.09 | 1.11 | 1.09 | 0.202 | 0.223 | 0.214 | 0.236 | 0.213
NCI-H2170 | 1.29 | 1.26 | 1.11 | 0.655 | 0.776 | 0.842 | 0.766 | 0.771 | 0.394 | 0.199 | 0.258 | 0.271 | 0.26 | 0.307 | 0.28 | 0.754 | 0.623 | 0.769 | 0.585 | 0.555
LOU-NH91 | 0.74 | 0.772 | 0.757 | 0.754 | 0.752 | 0.796 | 0.711 | 0.823 | 0.717 | 0.681 | 0.757 | 0.798 | 0.663 | 0.745 | 0.841 | 0.431 | 0.366 | 0.319 | 0.345 | 0.279
NCI-H647 | 1.11 | 1.05 | 1.02 | 0.935 | 0.42 | 0.46 | 0.235 |  | 0.217 | 0.0695 | 0.99 | 0.998 | 1.17 | 1.01 | 1.12 | 0.257 | 0.344 | 0.168 | 0.131 | 0.158
LXF-289 | 0.919 | 0.812 | 0.9 | 0.933 | 0.912 | 0.931 | 1.08 | 1.12 | 0.971 | 0.686 | 0.912 | 0.894 | 0.916 | 0.962 | 0.875 | 0.766 | 0.671 | 0.52 | 0.82 | 0.616
PC-3 [JPC-3] | 1.06 | 0.968 | 1.1 | 0.98 | 0.963 | 0.882 | 0.728 | 0.99 | 0.798 | 0.62 | 0.486 | 0.467 | 0.394 | 0.447 | 0.475 | 0.718 | 0.718 | 0.698 | 0.726 | 0.705
LK-2 | 0.223 | 0.228 | 0.248 | 0.249 | 0.212 | 0.477 | 0.392 | 0.282 | 0.415 | 0.252 | 0.916 | 0.941 | 0.893 | 0.896 | 0.72 | 0.18 | 0.182 | 0.149 | 0.205 | 0.181
NCI-H1993 | 0.897 | 0.844 | 0.809 | 0.852 | 0.686 | 0.958 | 0.669 | 0.603 | 0.723 | 0.552 | 0.745 | 1.02 | 0.806 | 0.788 | 0.777 | 1.1 | 0.857 | 0.67 | 0.655 | 0.704
HCC-15 | 0.989 | 0.817 | 0.906 | 0.982 | 0.854 | 1.35 | 0.434 | 1.23 | 1.29 | 1.26 | 0.883 | 0.854 | 0.823 | 0.882 | 0.74 | 0.37 | 0.175 | 0.517 | 0.422 | 0.315
NCI-H322M | 1.03 |  | 0.858 | 0.881 | 0.502 | 0.565 | 0.488 | 0.361 | 0.382 | 0.366 | 0.631 | 0.646 | 0.519 | 0.565 | 0.572 | 0.958 | 0.87 | 0.632 | 0.4 | 0.266
